Columns and labels:
[1] = test system: human neuron-like SH-SY5Y cells; test: Neuroprotective effect on glutamate-induced oxidative damage, cell death by propidium iodide staining; assay type: cell-based; details: for Neuroprotective effect (% of control): co-treatment with 160 mM Glu for 24 h, difference between 160 mM Glu and co-treatment group means; for Neuroprotective effect compared with positive controls (R-LA, DFO): 160 mM Glu, 24 h
Experimental: Similarly, to the previous test the assay was performed in 96-well microplates with 20000 cells per well. Day after the seeding of cells, SH-SYSY underwent all-trans retinoic acid (ATRA)-differentiation for 48 h (ATRA 10 μM). […] […] After 24 h the cell death was quantified by propidium iodide staining according to literature (Stone et al. BMC Cell Biol. 2003, 4, 1) with modifications. In general, PI staining is associated with damaged cell membrane or presence of dying cells (Stone et al. BMC Cell Biol. 2003, 4, 1). Due to the loss of adherence, damaged or death cells were stained by PI solution directly in media at 1.5 μM final concentration and incubated at room temperature for 15-25 minutes at room temperature. PI stained cells were quantified at 535/617 nm (excitation/emission) by Infinite M200 Pro (Tecan) microplate reader. Cell death generated by 160 mM Glu was consider as 100% of cell death so that reduction in cell death (neuroprotective effect) was observed.

[2] = test system: neuron-like SH-SY5Y cells; test: Glutamate-induced oxidative stress, superoxide radical formation by dihydroethidium staining; assay type: cell-based, human; details: 4 hour co-treatment with 160 mM Glu, percentages of 160 mM Glu control, mean of three independent experiments
Experimental: Similarly as shown in previous assay, cells grew on 96 multiwell plates at density 20000 cells per well underwent differentiation and treatment procedure for glutamate model. After 4 hour co-treatment with glutamate superoxide radical's formation as marker of oxidative stress was quantified by dihydroethidium according to Kim et al. 2017, J. Med. Food, 20, 140-151 with modifications. Briefly, neuron-like SH-SYSY cells were centrifuged at 500 g for 5 minutes and 30 seconds, then media were replaced by 10 μM DHE PBS solution and kept at room temperature for 30 minutes. After 30 minutes, DHE was read at 500 nm/580 nm (excitation/emission) by Infinite M200 Pro (Tecan) microplate reader. DHE is cell permeable dye which is selective toward superoxide radical detection. Overall oxidative stress achieved by 160 mM Glu was consider as 100% so that the reduction in oxidative stress (OS reducing effect) was observed. As shown in Table 6 and FIG. 2, 160 mM Glu induced 2.6 fold increase in superoxide radical's formation.

[3] = test system: SH-SY5Y human neuroblastoma cell line (neuron-like phenotype); test: Calcein AM viability test on ATRA-differentiated neuron-like SH-SY5Y cells; assay type: cell-based; details: 24 hours of treatment, mean of two independent experiments
Experimental: (§1) The SH-SY5Y human neuroblastoma cell line obtained purchased from ECACC (The European Collection of Authenticated Cell Cultures) was cultivated in Dulbecco's modified Eagle's Medium and Ham's F12 Nutrient Mixture (DMEM:F-12, 1:1), supplemented with 10% fetal bovine serum (FBS) and 1% penicillin and streptomycin at 37° C. in a humidified atmosphere 5% CO2, 95% air in passage limit up to ECACC+20. The assay was performed in 96-well microplate with 7000 SH-SY5Y cells per well. Next day, SH-SY5Y underwent all-trans retinoic acid (ATRA)-differentiation for 48 h (ATRA 10 μM). After 48 h, old DMEM/F12 media was removed by fresh media containing tested compounds at 0.1, 1 and 10 μM concentrations for 24 h. The tested compounds were dissolved in DMSO were added into the medium. The maximum concentration of DMSO in media was kept below 0.1% (v/v). The cell viability was measured by Calcein AM (1 mg/ml ThermoFisher) viability assay. Solution of Calcein AM in PBS (0.75 μM) was pipetted to cells and incubated for 50 minutes. After that the fluorescence was measured at 488/517 nm (excitation/emission) using microplate reader Infinite M200 (TECAN). Calcein AM assay is based on the dye-intracellular-esterase cleavage of non-fluorescent dye (Calcein AM) by living cells to fluorescent dye (Calcein), while dyeing cells that lose such ability. The values in Table 4 show % of viability, relative to control of all tested compounds. The control (medium with DMSO, <0.1% (v/v)) was postulated as 100% viability (see the first line of the table).

[4] = as above; assay type: cell-based; details: human, ATRA-differentiated neuron-like SH-SY5Y neuroblastoma cells, 24 hours of treatment, mean of two independent experiments, read-out: Viability (% of DMSO control)
[5] = as above; assay type: cell-based, human; details: human, ATRA-differentiated neuron-like SH-SY5Y neuroblastoma cells; 1 μM, 24 hours of treatment, mean of two independent experiments; read-out: Viability (% of DMSO control)
Experimental: as §1

Row | Compound | Neuroprotective effect (% of control) ([1]; 1 μM) | Neuroprotective effect compared with positive controls (R-LA, DFO) ([1]; 10 μM) | Neuroprotective effect (% of control) ([1]; 10 μM) | Superoxide radical formation (% of 160 mM glutamate control) ([2]; 1 μM) [%] | Superoxide radical formation (% of 160 mM glutamate control) ([2]; 10 μM) [%] | Viability (% of DMSO control) ([3]; 0.1 μM) | Viability (% of DMSO control) ([3]; 1 μM) | Viability (% of DMSO control) ([3]; 10 μM) | viability at 24 h, 5 µM ([4]; 5 μM) [%] | viability at 24 h, 50 µM ([4]; 50 μM) [%] | Neuroprotective effect (% of control) ([1]; 100 μM) | Superoxide radical formation (% of 160 mM glutamate control) ([2]; 100 μM) [%] | viability at 24 h, 1 µM [5] [%] | Neuroprotective effect (% of control) ([1]; 50 μM) | Superoxide radical formation (% of 160 mM glutamate control) ([2]; 5 μM) [%] | Superoxide radical formation (% of 160 mM glutamate control) ([2]; 50 μM) [%]
1 | CC[C@@H](C)[C@H]1CC[C@H]2[C@@H]3CC(=O)[C@H]4C[C@H](O)[C@H](O)C[C@]4(C)[C@H]3CC[C@]12C [Compound 6] | 15.00 % of control | double neuroprotective effect than R-LA | 33.70 % of control | 85.36 | 80.19 | 101.30 % of DMSO control | 104.80 % of DMSO control | 122.10 % of DMSO control | – | – | – | – | – | – | – | –
2 | CCC[C@@H](C)[C@H]1CC[C@H]2[C@@H]3CC(=O)[C@H]4C[C@H](O)[C@H](O)C[C@]4(C)[C@H]3CC[C@]12C [Compound 15] | – | double neuroprotective effect than R-LA | 30.08 % of control | 98.27 | 85.61 | 98.20 % of DMSO control | 106.40 % of DMSO control | 120.60 % of DMSO control | – | – | – | – | – | – | – | –
3 | CCCC[C@@H](C)[C@H]1CC[C@H]2[C@@H]3CC(=O)[C@H]4C[C@H](O)[C@H](O)C[C@]4(C)[C@H]3CC[C@]12C [Compound 30] | – | – | 23.17 % of control | 84.54 | 81.08 | 99.41 % of DMSO control | 102.30 % of DMSO control | 104.70 % of DMSO control | – | – | – | – | – | – | – | –
4 | CCCCC[C@@H](C)[C@H]1CC[C@H]2[C@@H]3CC(=O)[C@H]4C[C@H](O)[C@H](O)C[C@]4(C)[C@H]3CC[C@]12C [Compound 57] | 15.99 % of control | – | 24.88 % of control | 93.34 | 83.99 | 105.90 % of DMSO control | 108.90 % of DMSO control | 117.10 % of DMSO control | – | – | – | – | – | – | – | –
5 | CC(C)CCC[C@@H](C)[C@H]1CC[C@H]2[C@@H]3CC(=O)[C@H]4C[C@H](O)[C@H](O)C[C@]4(C)[C@H]3CC[C@]12C [Compound 111] | – | – | 26.52 % of control | 89.17 | 80.21 | 106.90 % of DMSO control | 107.80 % of DMSO control | 109.90 % of DMSO control | – | – | – | – | – | – | – | –
6 | CC(=O)N(O)CCCCCNC(=O)CCC(=O)N(O)CCCCCNC(=O)CCC(=O)N(O)CCCCCN [DFO, deferoxamine, reference compound] | – | – | 19.94 % of control | – | 87.06 | – | – | – | 106 | 110 | 23.55 % of control | 92.61 | 106 | – | – | –
7 | O=C(O)CCCC[C@@H]1CCSS1 [R-LA, R-lipoic acid, reference compound] | – | – | – | – | – | – | – | – | – | – | – | – | – | 13.49 % of control | 86.72 | 83.91
